The source of these data is publication PMC9499365, “Stereoselective Synthesis and Application of Gibberellic Acid-Derived Aminodiols” (International Journal of Molecular Sciences, 2022).

For test [1], the system named is HeLa cells (cervical cancer). Nature of the test: MTT antiproliferative assay, HeLa. The format is cell-based, human. The note with it: 72 h. Put shortly:
(§1)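 Cells seeded overnight, then exposed to compound at 10 µM and 30 µM for 72 h at 37 °C, 5% CO2. Growth inhibition read by MTT (4 h), formazan dissolved in DMSO, absorbance at 545 nm versus untreated controls; two independent experiments, five wells each.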

A short description of test [2]: DPPH free radical scavenging assay. Particulars: concentration range 3–100 µM.
Experimental: As a consequence, in vitro antioxidant activities of selected N-aliphatic- and N-aryl-substituted aminodiols were determined by 1,1-diphenyl-2-picrylhydrazyl (DPPH) assay.
The antioxidant effects of the aminodiol derivatives were tested on 1,1-diphenyl-2-picrylhydrazyl (DPPH) radicals according to Brand-Williams (1995) [55] and Sánchez-Moreno (2002) [56], with some modifications. […] After a 30 min incubation period at room temperature (25 °C) the absorbances were measured at 517 nm by a microplate reader (SPECTROStar Nano, BMG Labtech, Offenburg, Germany). Trolox (3,4-Dihydro-6-hydroxy-2,5,7,8-tetramethyl-2H-1-benzopyran-2-carboxylic acid) was used as a positive control. All measurements were performed in duplicate with 5 parallels.
Test [3] concerns NIH/3T3 mouse embryo fibroblast cells. The test can be described thus: MTT assay on non-cancerous fibroblasts (cancer selectivity). The format is cell-based. The note with it: for IC50: NIH/3T3, 72 h; for cancer selectivity (cancer cells vs NIH/3T3 fibroblasts), words: comparison of IC50 on fibroblasts and malignant cell lines. As to the method:
(§2) The in vitro antiproliferative activities of the synthesized aminodiols 4–38 against a panel of different human cancer cell lines of gynecological origin, including cervical (SiHA and HeLa), breast (MCF7 and MDA-MB-231), and ovary (A2780) cancers were assayed by the MTT method. […] Cisplatin, a clinically applied anticancer agent, was used as a reference compound and the results are summarized in Figure 3 and Table S1 in Supporting Information. […] On the other hand, none of the prepared azole derivatives exerted relevant activity.
The growth-inhibitory effects of the gibberellic acid-based aminodiol derivatives were determined by a standard MTT (3-(4,5-dimethylthiazol-2-yl)-2,5-diphenyltetrazolium bromide) assay on a panel containing five cell lines, including Hela and Siha (cervical cancers); MDA-MB-231 and MCF-7 (breast cancers); and A2780 ovarian cancer cells. The most promising agents were additionally tested against NIH/3T3 mouse embryo fibroblast cells. All cell lines were purchased from the European Collection of Cell Cultures (Salisbury, UK) except SiHa, which was obtained from the American Tissue Culture Collection (Manassas, VA, USA). The cells were maintained in minimal essential medium supplemented with 10% fetal bovine serum, 1% non-essential amino acids, and 1% penicillin-streptomycin at 37 °C in a humidified atmosphere containing 5% CO2. All media and supplements were obtained from Lonza Group Ltd., (Basel, Switzerland). Cancer cells were seeded into 96-well plates (5000 cells/well), after an overnight incubation the test compound was added in 2 different concentrations (10 µM and 30 µM) and incubated for another 72 h under cell-culturing conditions. Then, 20 μL of 5 mg/mL MTT solution was added to each well and incubated for a further 4 h. The medium was removed, and the precipitated formazan crystals were dissolved in DMSO during 60 min of shaking at 37 °C. As the final step, the absorbance was measured at 545 nm by using a microplate reader (SPECTROStar Nano, BMG Labtech, Offenburg, Germany). Untreated cells were included as controls. […] These agents were additionally tested against NIH/3T3 fibroblasts to obtain results about their cancer selectivity. Two independent experiments were performed with five wells for each condition. Cisplatin (Ebewe GmbH, Unterach, Austria), a clinically used anticancer agent, was used as a positive control. Calculations were performed utilizing the GraphPad Prism 5.01 software (GraphPad Software Inc., San Diego, CA, USA).

Test [4] relates to SiHa cells (cervical cancer). Nature of the test: MTT antiproliferative assay, SiHa. The format is cell-based, human. The note with it: 72 h. Put shortly: as §1
The test system of test [5] is MDA-MB-231 cells (breast cancer). The test can be described thus: MTT antiproliferative assay, MDA-MB-231. It counts as cell-based, human. Particulars: for IC50: MDA-MB-231, 72 h. Put shortly:
as §1

Test [6] relates to panel of human cancer cell lines. Nature of the test: MTT antiproliferative assay, panel of human cancer cell lines (summary statements). It counts as cell-based. Particulars: range over the cancer cell lines, read-out: calculated IC50 value on the malignant cell lines. As to the method: as §2
The growth-inhibitory effects of the gibberellic acid-based aminodiol derivatives were determined by a standard MTT (3-(4,5-dimethylthiazol-2-yl)-2,5-diphenyltetrazolium bromide) assay on a panel containing five cell lines, including Hela and Siha (cervical cancers); MDA-MB-231 and MCF-7 (breast cancers); and A2780 ovarian cancer cells. The most promising agents were additionally tested against NIH/3T3 mouse embryo fibroblast cells. All cell lines were purchased from the European Collection of Cell Cultures (Salisbury, UK) except SiHa, which was obtained from the American Tissue Culture Collection (Manassas, VA, USA). […] As the final step, the absorbance was measured at 545 nm by using a microplate reader (SPECTROStar Nano, BMG Labtech, Offenburg, Germany). […]

The test system of test [7] is A2780 ovarian cancer cells. The test can be described thus: MTT antiproliferative assay, A2780. It counts as cell-based, human. Particulars: for IC50: A2780, 72 h. The gist of the method: as §1
The mark [8] stands for this setting: Homo sapiens, 10 μM, read-out: Growth inhibition (%) ± SEM.
Where [9] appears, read: Homo sapiens, 30 μM, read-out: Growth inhibition (%) ± SEM.

In the case of `CCOC(=O)[C@H]1c2c(C)cccc2[C@H]2CC[C@]3(O)C[C@@]21C[C@]3(O)CN[C@@H](C)c1cccc2ccccc12` [Compound 13, Ethyl (4bS,7S,8S,9aR,10R)-7,8-dihydroxy-1-methyl-8-((((S)-1-(naphthalen-1-yl)ethyl)amino)methyl)-4b,6,7,8,9,10-hexahydro-5H-7,9a-methanobenzo[a]azulene-10-carboxylate], the inhibition at 10 µM in test [1] (setting [8]) is 97.16 ± 0.49%; in test [3] (Mus musculus, NIH3T3, NIH/3T3, 10 μM, 72 h, read-out: Growth inhibition (%) ± SEM), 40.5 ± 0.86%; in test [4] (setting [8]), 96.05 ± 0.46%; in test [5] (Homo sapiens, MDA-MB-231, 10 μM, 72 h, read-out: Growth inhibition (%) ± SEM), 94.86 ± 0.83%; in test [7] (Homo sapiens, A2780, 10 μM, 72 h, read-out: Growth inhibition (%) ± SEM) it was 91.2 ± 1.96%. The inhibition at 30 µM stood at 96.87 ± 0.47% in test [1] (setting [9]); 88.1 ± 0.16% in test [3] (Mus musculus, NIH3T3, NIH/3T3, 30 μM, 72 h, read-out: Growth inhibition (%) ± SEM); 96.74 ± 0.27% in test [4] (setting [9]); 96 ± 0.92% in test [5] (Homo sapiens, MDA-MB-231, 30 μM, 72 h, read-out: Growth inhibition (%) ± SEM); 96.7 ± 1.17% in test [7] (Homo sapiens, A2780, 30 μM, 72 h, read-out: Growth inhibition (%) ± SEM). The 50% inhibitory concentration (IC50) in test [1] (Homo sapiens) was 4.38 ± 0.08 µM; in test [3] (Mus musculus, NIH3T3) it was 10.9 µM; in test [4] (Homo sapiens) it was 4.69 ± 0.17 µM; in test [5] (Homo sapiens), 7.49 ± 1.26 µM; in test [6] it was 4.38 to 7.49 µM; in test [7] (Homo sapiens), 5.3 ± 0.41 µM. Moreover, the “DPPH scavenging activity” value in test [2] is listed as “None of the six molecules elicited considerable activity”. Also, the “cancer selectivity (cancer cells vs NIH/3T3 fibroblasts), words” value in test [3] was “modest cancer selectivity”.

On to `CCOC(=O)[C@H]1c2c(C)cccc2[C@H]2CC[C@]3(O)C[C@@]21C[C@]3(O)CN[C@@H](C)c1ccc2ccccc2c1` [Compound 12], for which the “Growth inhibition (%) ± SEM” value in test [1] (10 μM) is reported as 97.69 ± 0.28%; in test [1] (30 μM), 97.62 ± 0.55%; in test [3] (NIH/3T3, 10 μM, 72 h) it was 90.43 ± 0.15%; in test [3] (NIH/3T3, 30 μM, 72 h), 91.03 ± 0.05%; in test [4] (10 μM) it was 97.41 ± 0.15%; in test [4] (30 μM), 97.06 ± 0.20%. In addition, the “Growth inhibition (%) ± SEM” value in test [5] (MDA-MB-231, 10 μM, 72 h) was 95.00 ± 0.69%; in test [5] (MDA-MB-231, 30 μM, 72 h), 93.72 ± 0.88%; in test [7] (A2780, 10 μM, 72 h), 96.29 ± 0.59%; in test [7] (A2780, 30 μM, 72 h), 96.28 ± 0.82%. The half-maximal inhibitory concentration (IC50) in test [1] was 4.14 ± 0.38 µM; in test [3] it was 4.57 ± 0.23 µM; in test [4], 4.17 ± 0.32 µM; in test [5], 7.19 ± 1.48 µM; in test [7], 5.45 ± 0.31 µM. In test [2], the “DPPH scavenging activity” value is “None of the six molecules elicited considerable activity”. Also, the “cancer selectivity (cancer cells vs NIH/3T3 fibroblasts), words” value in test [3] is “inhibited the growth of cancer cells and fibroblasts in the same concentration range”.
